Read-outs that look alike come from different tables or passages of the source.

The record followed here is PMC7026885, “Macrofilaricidal Benzimidazole–Benzoxaborole Hybrids as an Approach to the Treatment of River Blindness: Part 1. Amide Linked Analogs” (ACS Infectious Diseases, 2019).

Data set [1] concerns Onchocerca volvulus L3 larvae. As to the kind of experiment: Onchocerca volvulus L3 larval molting assay. The note with it: L3 molting assay, Table 1, read-out: O. volvulus IC50. Type of data set: cell-based. The protocol:
The first three analogs from the benzimidazole 5-carboxylic acid, namely 7a (from 6-aminobenzoxaborole), 8a (from 6-aminomethyl-3,3-dimethylbenzoxaborole), and 8b (from 3-aminomethylbenzoxaborole), were prepared and tested in an Onchocerca volvulus L3 larval molting assay[34],[35] and a mammalian G2/M arrest assay[36] to evaluate antifilarial activity and selectivity, respectively (Table 1). O. volvulus is the causative agent of river blindness, and the L3 molting assay is the only widely available and reproducible assay of this filariid, the target of novel macrofilaricidal drugs.[34],[35] Other animal models (e.g., Brugia in gerbils) recapitulate aspects of lymphatic filariasis and are also used as surrogate screens for O. volvulus infections. Of the three compounds tested, 8a emerged as the most attractive compound on the basis of potency and selectivity.
(§1) Plates were incubated at 37 °C in a 5% CO2 incubator for 6 days, then molting was assessed visually using an inverted microscope. Molting was determined in each well by counting the presence of fourth stage larvae (L4s) and empty casts of L3s.
(§2) The percent inhibition of molting was calculated based on the number of treated larvae that were able to molt in comparison to the number of control larvae that had successfully molted. IC50 values were calculated using GraphPad Prism v6.0
(§3) (http://www.graphpad.com). See Bullman et al., PLoS Negl. Trop.
(§4) Adult Brugia malayi transplantation in vivo model procedure.
(§5) Gerbils (Meriones unguiculatus) were infected by transplantation of 10 male and 10 female adult Brugia malayi into the peritoneal cavity. Gerbils were acclimated for 7 days prior to treatment. Animals were dosed based on their body weight prior to each dosing. Animals were administered their doses at the same time each day and receive standard rodent laboratory diet and water ad libitum. Gerbils were humanely euthanized at the conclusion of each study. Peritoneal counts of male and female adult B. malayi and visual condition of the peritoneum were recorded.
Brugia pahangi L3 injection in vivo model procedure 8.
Male gerbils (Meriones unguiculatus) approximately 6 weeks of age (50-60 g) were purchased from Charles Rivers (USA, Kingston K62 Gerbils) and infected by intraperitoneal injection with 200 Brugia pahangi third-stage larvae (L3) per animal
(Filariatech, Inc., Athens, GA). Gerbils were housed with no more than 5 animals per cage and maintained 9 months prior to treatment. All gerbils were dosed in accordance with their body weight determined prior to each dosing. Animals were […]

The next data set relates to Brugia pahangi. As to the kind of experiment: Brugia pahangi L3 injection in vivo model in gerbils. Conditions: B. pahangi, necropsy day 63, QD. The protocol:
(§6) We characterized the in vitro ADME properties of 8a in preparation for evaluation of this compound in our primary in vivo model in gerbils. […] We were pleased to find that 8a was able to kill 100% of both male and female worms in the gerbil peritoneum when dosed subcutaneously at 100 mg/kg/day for 14 days as a suspension in a nonsolubilizing HEC/Tween vehicle. […] The subsequent assessment of the pharmacokinetics of 8a from these two dosing paradigms provided an interesting observation that we believe to be important in understanding the PK–PD requirements for achieving efficacy in this animal model. […] We had made the same observation in a positive control group using flubendazole at a subcutaneous dose of 10 mg/kg/day for 5 days in the nonsolubilizing HEC/Tween vehicle, namely, that plasma levels of flubendazole were maintained above the in vitro IC50 (4 nM) for over 42 days, consistent with data reported in the literature.[43] […] We next examined 8a in two additional in vivo models, the first where L3 B. pahangi larvae were injected into the peritoneum of gerbils and allowed to develop into adult worms[45] and a second where gerbils were naturally infected by the filarial nematode Litomosoides sigmodontis.[46],[47] In both of these models, 8a was administered subcutaneously at 100 mg/kg for 14 days or orally at 100 mg/kg for 28 days as a suspension. […] Additionally, when plasma obtained from treated animals at necropsy was analyzed for 8a, we observed an outcome similar to that observed in the adult implantation model, e.g., that measurable levels were present at this time point in the subcutaneous-dosed groups but not in the orally dosed groups, weeks after administration of the drug. In a final L. sigmodontis experiment with 8a, we dosed the compound subcutaneously at 300 mg/kg for 7 days as a suspension.
as §1, §2, §3, §4, §5
Brugia pahangi L3 injection in vivo model procedure 8. […]
(Filariatech, Inc., Athens, GA). […] All gerbils were dosed in accordance with their body weight determined prior to each dosing. […]
The adult Brugia worms were recovered by opening the body cavity and washing the peritoneal cavity with 100 mL of phosphate buffered saline. Male and female worms were counted using a […]

The nature of data set [2]: Plasma drug concentrations in treated infected gerbils. Type of data set: in vivo. Conditions: for concentration at 42 day: day 42; for concentration at 28 day: day 28. The protocol:
as §6

In another data set the test system is B. malayi/pahangi worms. As to the kind of experiment: ex vivo B. malayi/pahangi assay. It counts as cell-based. The note with it: short (<7 days) exposure of worms.
Setting [3] is: 100 mg/kg × 28 days, PO (suspension).

Regarding `COC(=O)Nc1nc2cc(C(=O)c3ccc(F)cc3)ccc2[nH]1` [compound 1, Flubendazole, reference compound], the IC50 in data set [1] is 0.004 µM. In addition, in the data set with Brugia pahangi (10 mg/kg × 5 days, SC), the adult worm reduction worked out at 100%/100% and the “animals with no worms” value was 100%/100%. The compound further returned a concentration at 24 h after last dose in data set [2] (gerbil, in vivo, sc, 10 mg/kg, drug concentration 24 h after last dose) of 178 nM. The compound further had a concentration at 42 day (necropsy) in data set [2] (gerbil, in vivo, sc, 10 mg/kg, drug concentration at necropsy) of 43 nM. The “time plasma levels maintained above in vitro IC50 (4 nM)” value in data set [2] (gerbil, in vivo, sc, 10 mg/kg/day) was “over 42 days”. Further, in the data set on B. malayi/pahangi worms, the “killing of worms after short exposure” value is on record as “not effective in killing the worms”.
As for `COC(=O)Nc1nc2cc(C(=O)NCc3ccc4c(c3)B(O)OC4(C)C)ccc2[nH]1` [8a], in data set [1], the IC50 is 0.3 µM. Moreover, the adult worm reduction in the data set with Brugia pahangi (100 mg/kg × 14 days, SC (suspension)) worked out at 100%; with Brugia pahangi (setting [3]), 24%. The “animals with no worms” value in the data set on Brugia pahangi (setting [3]) is 0%. Further, the “drug concentration at necropsy” value is “<LOQ” in data set [2] (B. malayi model, necropsy day 42, 100 mg/kg × 28 days, QD, PO (suspension)) and “<LOQ” in data set [2] (B. pahangi model, necropsy day 63, 100 mg/kg × 28 days, QD, PO (suspension)). In addition, the concentration at 24 h after last dose in data set [2] (gerbil, plasma, po, 100 mg/kg, B. malayi model, 100 mg/kg × 28 days, QD, PO (suspension), read-out: drug concentration 24 h after last dose) stood at 128 nM; in data set [2] (gerbil, plasma, po, 100 mg/kg, B. pahangi model, 100 mg/kg × 28 days, QD, PO (suspension), read-out: drug concentration 24 h after last dose), 130 nM; in data set [2] (gerbil, plasma, po, 100 mg/kg, L. sigmodontis model, 100 mg/kg × 28 days, QD, PO (suspension), read-out: drug concentration 24 h after last dose), 210 nM; in data set [2] (gerbil, plasma, sc, 100 mg/kg, B. malayi model, 100 mg/kg × 14 days, QD, SC (suspension), read-out: drug concentration 24 h after last dose), 4100 nM; in data set [2] (gerbil, plasma, sc, 100 mg/kg, B. pahangi model, 100 mg/kg × 14 days, QD, SC (suspension), read-out: drug concentration 24 h after last dose) it was 5870 nM; in data set [2] (gerbil, plasma, sc, 100 mg/kg, L. sigmodontis model, 100 mg/kg × 14 days, QD, SC (suspension), read-out: drug concentration 24 h after last dose) it was 9300 nM. In addition, the concentration at 24 h after last dose turned out to be 2470 nM in data set [2] (gerbil, plasma, sc, 150 mg/kg, B. malayi model, 150 mg/kg × 14 days, QD, SC (solution), read-out: drug concentration 24 h after last dose) and 7850 nM in data set [2] (gerbil, plasma, sc, 300 mg/kg, L. sigmodontis model, 300 mg/kg × 7 days, QD, SC (suspension), read-out: drug concentration 24 h after last dose). For the same compound, the concentration at 42 day in data set [2] (gerbil, plasma, po, 100 mg/kg, L. sigmodontis model, 100 mg/kg × 28 days, QD, PO (suspension), read-out: drug concentration interim) came out at 6 nM; in data set [2] (gerbil, plasma, sc, 300 mg/kg, L. sigmodontis model, 300 mg/kg × 7 days, QD, SC (suspension), read-out: drug concentration interim), 4640 nM. The concentration at 63 day (necropsy) in data set [2] (gerbil, plasma, po, 100 mg/kg, L. sigmodontis model, necropsy day 63, 100 mg/kg × 28 days, QD, PO (suspension)) was determined as 3 nM; in data set [2] (gerbil, plasma, sc, 100 mg/kg, B. pahangi model, necropsy day 63, 100 mg/kg × 14 days, QD, SC (suspension)) it was 1150 nM; in data set [2] (gerbil, plasma, sc, 100 mg/kg, L. sigmodontis model, necropsy day 63, 100 mg/kg × 14 days, QD, SC (suspension)), 69 nM; in data set [2] (gerbil, plasma, sc, 300 mg/kg, L. sigmodontis model, necropsy day 63, 300 mg/kg × 7 days, QD, SC (suspension)), 480 nM. For the same compound, the concentration at 28 day in data set [2] (gerbil, plasma, sc, 100 mg/kg, B. malayi model, 100 mg/kg × 14 days, QD, SC (suspension), read-out: drug concentration interim) worked out at 5360 nM; in data set [2] (gerbil, plasma, sc, 150 mg/kg, B. malayi model, 150 mg/kg × 14 days, QD, SC (solution), read-out: drug concentration interim) it was 70 nM. Besides, the concentration at 42 day (necropsy) in data set [2] (gerbil, plasma, sc, 100 mg/kg, B. malayi model, necropsy day 42, 100 mg/kg × 14 days, QD, SC (suspension), read-out: drug concentration at necropsy) stood at 3380 nM; in data set [2] (gerbil, plasma, sc, 150 mg/kg, B. malayi model, necropsy day 42, 150 mg/kg × 14 days, QD, SC (solution), read-out: drug concentration at necropsy) it was 10 nM. Besides, in data set [2] (gerbil, plasma, sc, 300 mg/kg, L. sigmodontis model, day 21, 300 mg/kg × 7 days, QD, SC (suspension), read-out: drug concentration interim), the concentration at 21 day stood at 10600 nM. For the same compound, the “killing of worms after short exposure” value in the data set on B. malayi/pahangi worms is “not effective in killing the worms”.

For orientation: IC50 means the concentration needed to halve the response being measured.
